Measured values: PubChem BioAssay (NCI)
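In this assay, cells in 96-well plates receive the compound at five concentrations for 48 hours. Endpoints are linearly interpolated between the surrounding concentrations. The concentration for 50% growth inhibition is given as GI50. TGI marks complete inhibition of growth.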

Columns and labels:
Assay in all cases: NCI tumour cell line growth inhibition, 48 h
A498 renal = test system: A498 renal
CAKI-1 renal = test system: CAKI-1 renal
DU-145 prostate = test system: DU-145 prostate
OVCAR-5 ovarian = test system: OVCAR-5 ovarian
RXF 393 renal = test system: RXF 393 renal
SF-295 CNS = test system: SF-295 CNS
SK-MEL-2 melanoma = test system: SK-MEL-2 melanoma
SK-MEL-28 melanoma = test system: SK-MEL-28 melanoma
SK-MEL-5 melanoma = test system: SK-MEL-5 melanoma
SK-OV-3 ovarian = test system: SK-OV-3 ovarian
SN12C renal = test system: SN12C renal
TK-10 renal = test system: TK-10 renal
UACC-257 melanoma = test system: UACC-257 melanoma
UACC-62 melanoma = test system: UACC-62 melanoma
UO-31 renal = test system: UO-31 renal
786-0 renal = test system: 786-0 renal
A549 NSCLC = test system: A549 NSCLC
ACHN renal = test system: ACHN renal
BT-549 breast = test system: BT-549 breast
CCRF-CEM leukemia = test system: CCRF-CEM leukemia
COLO 205 colon = test system: COLO 205 colon
EKVX NSCLC = test system: EKVX NSCLC
HCC-2998 colon = test system: HCC-2998 colon
HCT-116 colon = test system: HCT-116 colon
HCT-15 colon = test system: HCT-15 colon
HL-60(TB) leukemia = test system: HL-60(TB) leukemia
HOP-62 NSCLC = test system: HOP-62 NSCLC
HOP-92 NSCLC = test system: HOP-92 NSCLC
HS 578T breast = test system: HS 578T breast
HT29 colon = test system: HT29 colon
IGROV1 ovarian = test system: IGROV1 ovarian
K-562 leukemia = test system: K-562 leukemia
KM12 colon = test system: KM12 colon
LOX IMVI melanoma = test system: LOX IMVI melanoma
M14 melanoma = test system: M14 melanoma
MALME-3M melanoma = test system: MALME-3M melanoma
MCF7 breast = test system: MCF7 breast
MDA-MB-231 breast = test system: MDA-MB-231 breast
MDA-MB-435 = test system: MDA-MB-435
MOLT-4 leukemia = test system: MOLT-4 leukemia
NCI-H226 lung = test system: NCI-H226 lung
NCI-H23 lung = test system: NCI-H23 lung
NCI-H460 lung = test system: NCI-H460 lung
NCI-H522 lung = test system: NCI-H522 lung
NCI/ADR-RES ovarian = test system: NCI/ADR-RES ovarian
OVCAR-4 ovarian = test system: OVCAR-4 ovarian
OVCAR-8 ovarian = test system: OVCAR-8 ovarian
PC-3 prostate = test system: PC-3 prostate
RPMI-8226 leukemia = test system: RPMI-8226 leukemia
SF-268 CNS = test system: SF-268 CNS
SF-539 CNS = test system: SF-539 CNS
SNB-19 CNS = test system: SNB-19 CNS
SNB-75 CNS = test system: SNB-75 CNS
SR leukemia = test system: SR leukemia
SW-620 colon = test system: SW-620 colon
T-47D breast = test system: T-47D breast
U251 CNS = test system: U251 CNS

N#Cc1c(-c2ccc(Cl)cc2)nc(SCc2ccc([N+](=O)[O-])cc2)nc1N1CCNCC1
GI50 (A498 renal): 1560 nM
TGI (A498 renal): 2980 nM
GI50 (CAKI-1 renal): 1550 nM
TGI (CAKI-1 renal): 2900 nM
GI50 (DU-145 prostate): 1730 nM
TGI (DU-145 prostate): 3110 nM
GI50 (OVCAR-5 ovarian): 1560 nM
TGI (OVCAR-5 ovarian): 2980 nM
GI50 (RXF 393 renal): 1540 nM
TGI (RXF 393 renal): 2970 nM
GI50 (SF-295 CNS): 1780 nM
TGI (SF-295 CNS): 3210 nM
GI50 (SK-MEL-2 melanoma): 1610 nM
TGI (SK-MEL-2 melanoma): 3050 nM
GI50 (SK-MEL-28 melanoma): 1640 nM
TGI (SK-MEL-28 melanoma): 3020 nM
GI50 (SK-MEL-5 melanoma): 1680 nM
TGI (SK-MEL-5 melanoma): 3060 nM
GI50 (SK-OV-3 ovarian): 1780 nM
TGI (SK-OV-3 ovarian): 3200 nM
GI50 (SN12C renal): 1770 nM
TGI (SN12C renal): 3260 nM
GI50 (TK-10 renal): 1560 nM
TGI (TK-10 renal): 2960 nM
GI50 (UACC-257 melanoma): 1620 nM
TGI (UACC-257 melanoma): 3060 nM
GI50 (UACC-62 melanoma): 1690 nM
TGI (UACC-62 melanoma): 3110 nM
GI50 (UO-31 renal): 1320 nM
TGI (UO-31 renal): 2590 nM

CN(C)CCNC(=O)c1ccc(-c2nc3ccc4[nH]ncc4c3c3c2COCC3)cc1
GI50 (786-0 renal): 2050 nM
TGI (786-0 renal): 9430 nM
GI50 (A498 renal): 1190 nM
TGI (A498 renal): 2810 nM
GI50 (A549 NSCLC): 3180 nM
TGI (A549 NSCLC): > 100000 nM
GI50 (ACHN renal): 2850 nM
TGI (ACHN renal): 21700 nM
GI50 (BT-549 breast): 624 nM
TGI (BT-549 breast): 2370 nM
GI50 (CAKI-1 renal): 1200 nM
TGI (CAKI-1 renal): 12700 nM
GI50 (CCRF-CEM leukemia): 374 nM
TGI (CCRF-CEM leukemia): 50400 nM
GI50 (COLO 205 colon): 480 nM
TGI (COLO 205 colon): 2050 nM
GI50 (DU-145 prostate): 1490 nM
TGI (DU-145 prostate): 8680 nM
GI50 (EKVX NSCLC): 2170 nM
TGI (EKVX NSCLC): 12800 nM
GI50 (HCC-2998 colon): 1080 nM
TGI (HCC-2998 colon): 3240 nM
GI50 (HCT-116 colon): 367 nM
TGI (HCT-116 colon): 11300 nM
GI50 (HCT-15 colon): 10800 nM
TGI (HCT-15 colon): > 100000 nM
GI50 (HL-60(TB) leukemia): 1300 nM
TGI (HL-60(TB) leukemia): 4880 nM
GI50 (HOP-62 NSCLC): 1100 nM
TGI (HOP-62 NSCLC): 4070 nM
GI50 (HOP-92 NSCLC): 1000 nM
TGI (HOP-92 NSCLC): 5860 nM
GI50 (HS 578T breast): 523 nM
TGI (HS 578T breast): 3580 nM
GI50 (HT29 colon): 2050 nM
TGI (HT29 colon): 6990 nM
GI50 (IGROV1 ovarian): 1280 nM
TGI (IGROV1 ovarian): 9200 nM
GI50 (K-562 leukemia): 740 nM
TGI (K-562 leukemia): > 100000 nM
GI50 (KM12 colon): 955 nM
TGI (KM12 colon): 5260 nM
GI50 (LOX IMVI melanoma): 465 nM
TGI (LOX IMVI melanoma): 1850 nM
GI50 (M14 melanoma): 1370 nM
TGI (M14 melanoma): 3270 nM
GI50 (MALME-3M melanoma): 786 nM
TGI (MALME-3M melanoma): 2690 nM
GI50 (MCF7 breast): 293 nM
TGI (MCF7 breast): 7660 nM
GI50 (MDA-MB-231 breast): 791 nM
TGI (MDA-MB-231 breast): 5000 nM
GI50 (MDA-MB-435): 677 nM
TGI (MDA-MB-435): 2150 nM
GI50 (MOLT-4 leukemia): 604 nM
TGI (MOLT-4 leukemia): 5210 nM
GI50 (NCI-H226 lung): 1240 nM
TGI (NCI-H226 lung): 7140 nM
GI50 (NCI-H23 lung): 1240 nM
TGI (NCI-H23 lung): 3310 nM
GI50 (NCI-H460 lung): 2200 nM
TGI (NCI-H460 lung): 5460 nM
GI50 (NCI-H522 lung): 188 nM
TGI (NCI-H522 lung): 372 nM
GI50 (NCI/ADR-RES ovarian): 24100 nM
TGI (NCI/ADR-RES ovarian): > 100000 nM
GI50 (OVCAR-4 ovarian): 1850 nM
TGI (OVCAR-4 ovarian): 8910 nM
GI50 (OVCAR-5 ovarian): 3010 nM
TGI (OVCAR-5 ovarian): 28200 nM
GI50 (OVCAR-8 ovarian): 1230 nM
TGI (OVCAR-8 ovarian): 11100 nM
GI50 (PC-3 prostate): 1120 nM
TGI (PC-3 prostate): 8120 nM
GI50 (RPMI-8226 leukemia): 2170 nM
TGI (RPMI-8226 leukemia): 7310 nM
GI50 (RXF 393 renal): 239 nM
TGI (RXF 393 renal): 1040 nM
GI50 (SF-268 CNS): 292 nM
TGI (SF-268 CNS): 1820 nM
GI50 (SF-295 CNS): 3270 nM
TGI (SF-295 CNS): 16000 nM
GI50 (SF-539 CNS): 512 nM
TGI (SF-539 CNS): 2210 nM
GI50 (SK-MEL-2 melanoma): 360 nM
TGI (SK-MEL-2 melanoma): 1120 nM
GI50 (SK-MEL-28 melanoma): 1280 nM
TGI (SK-MEL-28 melanoma): 3940 nM
GI50 (SK-MEL-5 melanoma): 2270 nM
TGI (SK-MEL-5 melanoma): 6210 nM
GI50 (SK-OV-3 ovarian): 1060 nM
TGI (SK-OV-3 ovarian): 28500 nM
GI50 (SN12C renal): 1000 nM
TGI (SN12C renal): 5400 nM
GI50 (SNB-19 CNS): 587 nM
TGI (SNB-19 CNS): 7470 nM
GI50 (SNB-75 CNS): 382 nM
TGI (SNB-75 CNS): 1460 nM
GI50 (SR leukemia): 301 nM
TGI (SR leukemia): 2250 nM
GI50 (SW-620 colon): 527 nM
TGI (SW-620 colon): 4880 nM
GI50 (T-47D breast): 750 nM
TGI (T-47D breast): > 100000 nM
GI50 (TK-10 renal): 1450 nM
TGI (TK-10 renal): 7130 nM
GI50 (U251 CNS): 659 nM
TGI (U251 CNS): 16300 nM
GI50 (UACC-257 melanoma): 2410 nM
TGI (UACC-257 melanoma): 8170 nM
GI50 (UACC-62 melanoma): 767 nM
TGI (UACC-62 melanoma): 2570 nM
GI50 (UO-31 renal): 6750 nM
TGI (UO-31 renal): 62400 nM
